Patent EP0170168A2, “N,N,-diethyl, N'-aryl, N'-(dichlorfluormethylthio)sulfamide-microbiocides” (BAYER AG, priority 1984, dated 1986)

Legend:
Coniophora puteana = assay: Toxic limit values on impregnated wood discs (method after Sutter), pine wood; format: cell-based; conditions: Coniophora puteana (Kiefer)
From the text: (§1) Bestimmung der toxischen Grenzwerte (kg/m^3 Holz) der Wirkstoffe gemäß Beispiel 1 und 2 für Coniophora puteana bzw. Coriolus versicolor auf Kiefern- bzw. Buchenholz. Die Bestimmung der toxischen Grenzwerte erfolgt in Anlehnung an die von H.P. Sutter, Int. Biodeterioration Bulletin 14 (3), 1978, Seiten 95 bis 99, beschriebenen Methode.
(§2) Für die Tests werden jeweils frisch geschnittene dünne Stirnholzscheibchen (Größe 40 x 40 mm, Dicke etwa 2 mm) im Vakuum mit Lösungen unterschiedlich definierter Wirkstoffkonzentration getränkt. Die Menge des absorbierten Wirkstoffs in kg/m^3 Holz wird aus der Retention der Lösung (durch Einzelwägung der Holzproben vor und nach der Imprägnierung bestimmt), der Holzdichte und der Konzentration des Wirkstoffs in der verwendeten Imprägnierlösung errechnet.
(§3) Je 5 der 15 getrockneten Prüflinge einer Wirkstoffkonzentration werden dem Pilzangriff ohne Belastung ausgesetzt, 5 weitere Proben werden vorher im Windkanal (Windgeschwindigkeit: 1 + 0,1 m/sec; Temp.: 40 + 2°C) 4 Wochen lang belastet, 5 andere Prüflinge werden einer Wässerung in Anlehnung an DIN EN 84 unterzogen (14 Tage Lagerung in dest. Wasser bei 20°C, 9-maliger Wasserwechsel).
(§4) Für den mykologischen Test werden die Prüflinge nach Sterilisieren mit Propylenoxid einzeln auf das voll entwickelte Pilzmycel des Prüfpilzes auf Malzextraktagar in Petrischalen aufgelegt, durch Distanzhalter beträgt der Abstand zwischen Agaroberfläche und Probe ca. 5 mm. Nach 6wöchiger Lagerung bei 21-23°C wird der Zerstörungsgrad der Prüfling visuell beurteilt.
(§5) Als Grenzwerte der toxischen Wirkung werden die beiden Konzentrationen des Wirkstoffs in kg/m^3 Holz ermittelt, bei denen das Holz gerade noch und nicht mehr angegriffen wird.
(§6) In der folgenden Tabelle sind die Mittelwerte der Toxizitätsgrenzwerte für die erfindungsgemäßen Substanzen gemäß Beispiel 1 und 2 sowie für den bekannten Wirkstoff Dichlorfluonid für zwei Prüfpilze und zwei verschiedene Holzarten angegeben.
(§7) Mittlere Toxizitätsgrenzen (kg/m^3 Holz) von Wirkstoffen gemäß Beispiel 1 und 2 für holzzerstörende Pilze.

Coriolus versicolor = assay: Toxic limit values on impregnated wood discs (method after Sutter), beech wood; format: cell-based; conditions: Coriolus versicolor (Buche)
From the text: as §1, §2, §3, §4, §5, §6, §7

[1] = Solubility in organic solvents for wood preservatives; format: physicochemical; conditions: for Löslichkeit (%) in Shellsol AB: solvent Shellsol AB; for Löslichkeit (%) in Testbenzin: solvent Testbenzin
From the text: Löslichkeiten erfindungsgemäßer Wirkstoffe nach Beispiel 1 und 2 im Vergleich zum handelsüblichen Dichlofluanid in organischen Lösungsmitteln für Holzschutzmittel
(Testbenzin und Shellsol AB sind handelsübliche niedrigsiedende Kohlenwasserstoffe).

[2] = nach Belüftung (wind tunnel 4 weeks, 40°C)
[3] = nach Wässerung (14 days in distilled water, 20°C)
[4] = ohne Belastung, 6 weeks at 21-23°C

CN(C)S(=O)(=O)N(SC(F)(Cl)Cl)c1ccccc1 [Dichlofluanid, N,N-Dimethyl-N'-phenyl-N'-(fluordichlormethylthio)-sulfamid, reference compound]
Mittlere Toxizitätsgrenzen (Coniophora puteana; [2]): 3,7 kg/m^3 Holz | Mittlere Toxizitätsgrenzen (Coniophora puteana; [3]): 2,4 kg/m^3 Holz | Mittlere Toxizitätsgrenzen (Coniophora puteana; [4]): 1,9 kg/m^3 Holz | Mittlere Toxizitätsgrenzen (Coriolus versicolor; [2]): 3,5 kg/m^3 Holz | Mittlere Toxizitätsgrenzen (Coriolus versicolor; [3]): 3,2 kg/m^3 Holz | Mittlere Toxizitätsgrenzen (Coriolus versicolor; [4]): 2,5 kg/m^3 Holz | Löslichkeit (%) in Shellsol AB [1]: 6% | Löslichkeit (%) in Testbenzin [1]: 1,2%

CCN(CC)S(=O)(=O)N(SC(F)(Cl)Cl)c1ccccc1 [Beispiel 1, N,N-Diethyl-N'-phenyl-N'-(dichlorfluormethylthio)-sulfamid]
Mittlere Toxizitätsgrenzen (Coniophora puteana; [2]): 2,0 kg/m^3 Holz | Mittlere Toxizitätsgrenzen (Coniophora puteana; [3]): 0,8 kg/m^3 Holz | Mittlere Toxizitätsgrenzen (Coniophora puteana; [4]): 0,4 kg/m^3 Holz | Mittlere Toxizitätsgrenzen (Coriolus versicolor; [2]): 2,7 kg/m^3 Holz | Mittlere Toxizitätsgrenzen (Coriolus versicolor; [3]): 1,1 kg/m^3 Holz | Mittlere Toxizitätsgrenzen (Coriolus versicolor; [4]): 0,6 kg/m^3 Holz | Löslichkeit (%) in Shellsol AB [1]: 71% | Löslichkeit (%) in Testbenzin [1]: 16%

CCN(CC)S(=O)(=O)N(SC(F)(Cl)Cl)c1ccc(C)cc1 [Beispiel 2, N,N-Diethyl-N'-(p-tolyl)-N'-(dichlorfluormethylthio)-sulfamid]
Mittlere Toxizitätsgrenzen (Coniophora puteana; [4]): 0,7 kg/m^3 Holz | Mittlere Toxizitätsgrenzen (Coriolus versicolor; [4]): 1,5 kg/m^3 Holz | Löslichkeit (%) in Shellsol AB [1]: 67% | Löslichkeit (%) in Testbenzin [1]: 59%
